Measurements as given in patent US20260250318A1, “COMPOSITIONS AND METHODS FOR CROSSING THE BLOOD BRAIN BARRIER” (VOYAGER THERAPEUTICS, INC., priority 2022, published 2026).

Tests used:
Conditions in all cases: synthetic library passage 3, intravenous, relative to wild-type AAV9
[1] = system: brain; experiment: NGS fold enrichment of synthetic library (passage 3) in BALB/c mice, first cross-species screen; format: in vivo
Outline: (§1)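 Fold enrichment versus wild-type AAV9 was derived by NGS of RT-PCR-amplified RNA from nervous tissue, collected e.g. 28 days after IV dosing […]. The library (passage 3) was given to two NHPs aged 2-4 years and to 6-8-week BALB/c and C57Bl/6 mice (n=3 each).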

[2] = system: brain; experiment: NGS fold enrichment of synthetic library (passage 3) in C57Bl/6 mice, first cross-species screen; format: in vivo
Outline: as §1

[3] = system: brain, spinal cord, and DRG of the NHPs; experiment: NGS fold enrichment of synthetic library (passage 3) in NHPs, first cross-species screen; format: in vivo, cynomolgus macaques (Macaca fascicularis)
Outline: as §1

[4] = RNA from brain of BALB/c mice, NGS
[5] = RNA from brain of C57Bl/6 mice, NGS
[6] = RNA from spinal cord of NHPs, NGS

Sequence | Fold enrichment over AAV9 in the brain of Mice (BALB/c) [1, 4] | Fold enrichment over AAV9 in the brain of Mice (C57Bl/6) [2, 5] | Fold enrichment over AAV9 in the brain of NHPs ([3]; RNA from brain of NHPs, NGS) | Fold enrichment over AAV9 in the spinal cord of NHPs [3, 6] | Fold enrichment over AAV9 in the brain of Mice (BALB/c) ([1]; RNA NGS, brain of BALB/c mice) | Fold enrichment over AAV9 in the brain of Mice (C57Bl/6) ([2]; RNA NGS, brain of C57Bl/6 mice) | Fold enrichment over AAV9 in the brain of NHPs ([3]; RNA NGS, brain of NHPs) | Fold enrichment over AAV9 in the spinal cord of NHPs ([3]; RNA NGS, spinal cord of NHPs)
GSGSPQASRQNQQT | 0.542 fold | 0.923 fold | 1.189 fold | 6.782 fold |  |  |  | 
GYFVAAWSGQNQQT |  |  |  |  | 0.175 fold | 0.071 fold | 4.488 fold | 0.000 fold
GSGSVSQLGQNQQT |  |  |  |  | 0.375 fold | 0.596 fold | 3.184 fold | 2.307 fold
GSSHTLALGQNKQT | 0.643 fold | 0.838 fold | 1.362 fold | 2.160 fold |  |  |  | 
GYEVLGSSGQNQQT |  |  |  |  | 0.319 fold | 2.459 fold | 2.891 fold | 0.000 fold
GRGPKQSNIQNQQT | 2.490 fold | 0.771 fold | 1.125 fold | 0.737 fold |  |  |  | 
GRGQVVSTHQNQQT |  |  |  |  | 0.561 fold | 0.931 fold | 1.607 fold | 3.318 fold
GSSVGVPSGQNQQT | 1.157 fold | 0.336 fold | 1.322 fold | 4.867 fold |  |  |  | 
GSGQAAKSSQNQQT |  |  |  |  | 0.737 fold | 0.778 fold | 1.036 fold | 0.681 fold
GTREMPLSGQNQQT |  |  |  |  | 0.538 fold | 1.436 fold | 2.339 fold | 2.830 fold
GSGQALSSSGNQQT | 0.931 fold | 0.894 fold | 1.351 fold | 6.860 fold |  |  |  | 
GSDQSKRGDSNQQT | 0.267 fold | 0.479 fold | 1.225 fold | 0.639 fold |  |  |  | 
GSGQNQGTVYPNQT | 0.815 fold | 0.835 fold | 1.358 fold | 7.648 fold |  |  |  | 
GSRTTQVIGQNQQT |  |  |  |  | 0.564 fold | 0.773 fold | 1.570 fold | 1.838 fold
GSGQNQQKLSSMST | 1.052 fold | 1.160 fold | 1.286 fold | 1.586 fold |  |  |  | 
GSGQNQQVLTTART |  |  |  |  | 0.948 fold | 1.071 fold | 1.434 fold | 4.142 fold

Sequence | Fold enrichment over AAV9 in the brain of Mice (BALB/c) [1, 4] | Fold enrichment over AAV9 in the brain of Mice (C57Bl/6) [2, 5] | Fold enrichment over AAV9 in the brain of NHPs ([3]; RNA from brain of NHPs, NGS) | Fold enrichment over AAV9 in the spinal cord of NHPs [3, 6] | Fold enrichment over AAV9 in the brain of Mice (BALB/c) ([1]; RNA NGS, brain of BALB/c mice) | Fold enrichment over AAV9 in the brain of Mice (C57Bl/6) ([2]; RNA NGS, brain of C57Bl/6 mice) | Fold enrichment over AAV9 in the brain of NHPs ([3]; RNA NGS, brain of NHPs) | Fold enrichment over AAV9 in the spinal cord of NHPs ([3]; RNA NGS, spinal cord of NHPs)
GSGFSHSMGKNQQT | 0.611 fold | 1.381 fold | 1.188 fold | 9.809 fold |  |  |  | 
GSGKGHSAGQNQQT |  |  |  |  | 1.173 fold | 1.035 fold | 1.453 fold | 0.936 fold
GSRMTQQFGQNQQT |  |  |  |  | 0.976 fold | 1.233 fold | 1.720 fold | 25.798 fold
GSGQNQQTSQPLPG | 0.530 fold | 0.748 fold | 1.141 fold | 0.080 fold |  |  |  | 
GFNGSPSSGQNQQT |  |  |  |  | 0.924 fold | 2.338 fold | 2.609 fold | 12.197 fold
GSGSPHVKIQNQQT |  |  |  |  | 2.227 fold | 2.173 fold | 16.854 fold | 9.068 fold
GSGQDRHIVQNQQT |  |  |  |  | 0.162 fold | 0.285 fold | 1.527 fold | 11.068 fold
GSGQNQAGHGPGQT |  |  |  |  | 0.887 fold | 1.040 fold | 1.670 fold | 2.861 fold
GSGIPSVKFQNQQT | 0.561 fold | 0.364 fold | 1.281 fold | 0.061 fold |  |  |  | 
GSGMLTHTLQNQQT |  |  |  |  | 0.199 fold | 0.496 fold | 2.246 fold | 2.272 fold
GSGDDSRVGQNQQT | 0.156 fold | 0.466 fold | 1.172 fold | 0.191 fold |  |  |  | 
GERHTVLSGQNQQT |  |  |  |  | 0.607 fold | 1.027 fold | 3.289 fold | 3.008 fold
GGLGSMSSGQNQQT |  |  |  |  | 0.822 fold | 1.802 fold | 2.812 fold | 1.405 fold
GPNSYPVSGQKQQT | 0.834 fold | 0.736 fold | 1.381 fold | 4.040 fold |  |  |  | 
GSGQNQQTSVSQNV | 0.715 fold | 0.788 fold | 1.281 fold | 0.750 fold |  |  |  | 
